Test results reported in PMC7601585, “Aedes albopictus D7 Salivary Protein Prevents Host Hemostasis and Inflammation” (Biomolecules, 2020).

B1: AeD7L1: D7 long form salivary protein from Ae. aegypti (GenBank: AAA29347) (protein, UniProt P18153 18-321, looked up)
Long form salivary protein …: STGPFDPEEMLFTFTRCMEDNLEDGPNRLPMLAKWKEWINEPVDSPATQCFGKCVLVRTGLYDPVAQKFDASVIQEQFKAYPSLGEKSKVEAYANAVQQLPSTNNDCAAVFKAYDPVHKAHKDTSKNLFHGNKELTKGLYEKLGKDIRQKKQSYFEFCENKYYPAGSDKRQQLCKIRQYTVLDDALFKEHTDCVMKGIRYITKNNELDAEEVKRDFMQVNKDTKALEKVLNDCKSKEPSNAGEKSWHYYKCLVESSVKDDFKEAFDYREVRSQIYAFNLPKKQVYSKPAVQSQVMEIDGKQCPQ

Key:
AlboD7L1 = molecular target: T1, AlboD7L1 (Aedes albopictus, UniProt Q5MIW7); test: biochemical; type: binding; details: for ΔH (kcal/mol) ± SE / −TΔS: ITC, 30 °C, TBS pH 7.4, single-site model, N fixed = 1
T1 construct: made in house; host or cells: Escherichia coli BL21 (DE3) pLysS
Description: To identify the potential biological function of AlboD7L1, isothermal titration calorimetry (ITC) was used to determine its binding affinities to putative ligands that are known to affect inflammation and hemostasis (biogenic amines, leukotrienes, and thromboxane A2). Measurements were performed on a MicroCal VP-ITC (Malvern Panalytical, Westborough, MA, USA) at 30 °C and stir speed at 286 rpm. […] Protein and ligands were diluted in Tris-buffered saline (TBS-20 mM Tris-HCl, 150 mM NaCl, pH 7.4) and degassed under vacuum for 5 min using a MicroCal ThermoVac (Malvern Panalytical, Westborough, MA, USA). The AlboD7L1 concentrations were 2 μM, 3 μM, or 5 μM, and ligand concentrations were prepared at 10-fold the protein concentration (20 μM, 30 μM, or 50 μM), depending on protein/ligand combination for optimal ITC performance. For eicosanoid ligands, the solvent was first evaporated under a stream of nitrogen gas prior to dissolving in TBS, vortexed, and sonicated for 10 min (Branson 1510, Branson Ultrasonics, Danbury, CT, USA) to ensure dissolution. The protein sample volume in the cell was 1.4 mL, and ligand injections were delivered in 10 μL volume in a total of 31 injections. The data was analyzed using the MicroCal PEAQ-ITC analysis software v 1.21 (Malvern Panalytical, Westborough, MA, USA) by fitting to a single-site binding model to obtain the stoichiometry (N), the dissociation constant (KD), the enthalpy of binding (ΔH), and the entropy change (ΔS°) at a constant temperature (T).

AeD7L1 = system: AeD7L1; set-up: method as in PMID 19234127; details: cited from earlier work
platelet rich plasma = test: Ex vivo platelet aggregation (light transmission aggregometer); type: cell-based, human; details: lower U-46619 doses (Supplementary Figure S3A)
Description: Platelet rich plasma was obtained from normal healthy donors on the NCI IRB approved NIH protocol 99-CC-0168, “Collection and Distribution of Blood Components from Healthy Donors for In Vitro Research Use.” Blood donors provided written informed consent, and platelets were de-identified prior to distribution. Platelet aggregation was measured using a light transmission aggregometer (Chrono-Log Corporation, Havertown, PA, USA). Briefly, 300 μL of platelet rich plasma, diluted to approximately 2.5 × 10^5 platelets/μL in HEPES-Tyrode’s buffer (137 mM NaCl, […], 12 mM NaHCO3, 0.34 mM sodium phosphate monobasic, 1 mM MgCl2, 2.9 mM KCl, 5 mM HEPES, 5 mM glucose, 1% BSA, 0.03 mM EDTA, pH 7.4) were pre-stirred in the aggregometer for 1 min to monitor pre-aggregation effects. Recombinant AlboD7L1 or Tyrode’s buffer as negative control were added to the platelet rich plasma before adding the agonists. Aggregation agonists used in our studies included serotonin, epinephrine, collagen type I fibrils from equine tendons, U-46619, ADP or combination of agonists. Their concentrations are specified in the figure or figure captions. Technical duplicates were performed. For experiments shown in Figure 6 a Chrono-Log aggregometer model 500-CA was used while experiments shown in Supplementary Figure S3 were done in a Chrono-Log model 700.

T1 sequence (Q5MIW7 22-332 limits assumed): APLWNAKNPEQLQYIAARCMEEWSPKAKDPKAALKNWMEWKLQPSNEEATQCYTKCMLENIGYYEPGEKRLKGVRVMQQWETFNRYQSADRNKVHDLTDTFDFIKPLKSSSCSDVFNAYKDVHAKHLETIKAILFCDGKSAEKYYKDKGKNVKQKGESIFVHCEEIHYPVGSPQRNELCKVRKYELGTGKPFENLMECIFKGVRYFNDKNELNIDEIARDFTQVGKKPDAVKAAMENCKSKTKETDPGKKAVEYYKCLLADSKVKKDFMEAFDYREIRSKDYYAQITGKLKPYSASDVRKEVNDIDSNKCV

Molecule | Kd (AlboD7L1) [nM] | ΔH (kcal/mol) ± SE (AlboD7L1) [kcal/mol] | −TΔS (AlboD7L1) [kcal/mol] | binding to AeD7L1 (AeD7L1) | platelet aggregation initiated with lower doses of U-46619 (platelet rich plasma)
NC[C@H](O)c1ccc(O)c(O)c1 [Norepinephrine, norepinephrine] | 3.67 ± 0.994 | -11.6 ± 0.186 | -0.116 | – | –
CCCCC/C=C\C\C=C/C=C/C=C/[C@@H](SC[C@H](N)C(=O)NCC(=O)O)[C@@H](O)CCCC(=O)O [LTD4] | 332 ± 48.3 | -5.00 ± 0.139 | -3.98 | – | –
NCCc1c[nH]c2ccccc12 [Tryptamine, tryptamine] | 570 ± 97.7 | -6.43 ± 0.223 | -2.23 | – | –
NCCc1c[nH]cn1 [Histamine, histamine] | 278 ± 66.2 | -7.47 ± 0.378 | -1.63 | – | –
CCCCCC(O)C=CC1C2CC(CO2)C1CC=CCCCC(=O)O (centres unmarked) [U-46619] | 946 ± 269 | -8.54 ± 0.785 | 0.189 | does not bind | –
NCCc1ccc(O)c(O)c1 [Dopamine, dopamine] | 11 ± 2.19 | -12.3 ± 0.197 | 1.23 | – | –
CCCCC/C=C\C\C=C/C=C/C=C/[C@@H](SC[C@H](NC(=O)CC[C@H](N)C(=O)O)C(=O)NCC(=O)O)[C@@H](O)CCCC(=O)O [LTC4] | 67.7 ± 22.4 | -7.90 ± 0.350 | -2.05 | – | –
NCCc1c[nH]c2ccc(O)cc12 [Serotonin, serotonin] | 4.51 ± 2.66 | -13.7 ± 0.445 | 2.13 | – | –
CCCCC/C=C\C\C=C/C=C/C=C/[C@@H](SC[C@H](N)C(=O)O)[C@@H](O)CCCC(=O)O [LTE4, leukotriene E4] | 567 ± 115 | -3.98 ± 0.180 | -4.69 | – | –
CCCCC/C=C\C[C@@H](O)/C=C/C=C/C=C\[C@@H](O)CCCC(=O)O [LTB4, leukotriene B4] | 342 ± 65 | -2.74 ± 0.085 | -6.23 | – | –
CNC[C@H](O)c1ccc(O)c(O)c1 [Epinephrine, epinephrine] | 4110 ± 3330 | -6.83 ± 0.809 | -0.637 | – | –
B1 | – | – | – | – | inhibits platelet aggregation
